# Results taken from patent US9180212B2, “β-amyloid plaque imaging agents” (The Regents of the University of California, priority 2012, dated 2015).
# “Also recorded” adds a separate entry of the source.
# Key:
# [1] = target: T1, SP (senile plaques) in hippocampus of AD patients (Homo sapiens, UniProt P05067); assay: In vitro autoradiography of human hippocampus slices (AD vs control), senile plaque imaging; assay type: binding; settings: for Binding to SP present in AD brains compared to the normal controls (in words): autoradiography
# T1 construct: target the polymeric form of the β-amyloid peptide that is associated with senile plaques; from tissue; host or cells: 7 micron frozen sections of hippocampus of AD patients and control brains (UCI-ADRC repository)
# Source text: Human post-mortem Studies: We used post mortem human brain specimens from the UCI-ADRC Brain tissue repository for in vitro experiments. Age and gender matched AD brain and control brain tissue were used. Control cases consisted of clinically assessed nondemented individuals ranging in age from 70-90 years of age. AD brain samples were selected for end-stage pathology (based upon comments by the neuropathologist and Braak & Braak stage of VI. We matched each AD case with a similarly aged control case. AD cases, were selected on the basis as having a clinic visit within 1 year of death. Frozen hippocampus and frontal cortex, regions vulnerable to AD pathology, were selected for these studies. Sections of the cerebellum were used as a measure of low/nonspecific binding. Chunks of frozen tissue were dissected for immunohistochemical and autoradiographic techniques, as well as for biochemical experiments.
# Serial cryostat sections at 5-10 μm were used. The first set of sections was used to establish the extent of senile plaque and neurofibrillary tangle formation using immunohisto-chemistry and histological techniques. Antibodies against Aβ1-16, Aβ1-40 and Aβ1-42 were used to detect Aβ.
# In vitro autoradiography studies were performed on 7 micron slices of hippocampus of AD patients (n=2) and control brains (n=2). Hippocampus slices were incubated with the radiotracer (10-25 μCi/cc) in 40% ethanol-water for ½ hour.
# Binding to norepinephrine transporters (NET) were further evaluated in normal rats using PET/CT. Radiosynthesis was carried out by reacting 4-amino-4′-dimethylaminoazobenzene (1 mg/0.5 cc acetone for ^11C-TAZA) and 4-methylamino-4′-(N-methylamino)stilbene (1 mg/0.5 cc acetone for ^11C-Dalene) with 11C-methyltriflate prepared in the GE FXCPro synthesis unit. ^11C-Methyltriflate was trapped at −20° C., subsequently heated for 5 mins at 80° C. and purified using HPLC. In vitro autoradiography studies were performed on 7 micron slices of hippocampus of AD patients and control brains.
# Slices were then washed and exposed on to phosphor screens and slides were analysed by Optiquant image analysis program for SP binding Digital light units/mm^2 (DLU/mm^2). Sprague-Dawley rats were scanned after IV injection of ^11C-TAZA and ^11C-Dalene in Inveon PET/CT and displacement studies were done with atomoxetine (1 mg/kg). PET images were analyzed using PMOD.
# [2] = tested on: norepinephrine transporters (NET); assay: Rat brain PET with atomoxetine pre-injection (NET binding/uptake); assay type: in vivo, Sprague-Dawley rats
# Method: Based on earlier experimental observations (not shown), the inventors contemplated that the compounds presented herein not only bind with high specificity to β-amyloid, but also with similar high specificity to the NET. To investigate binding to/uptake by the NET, the effect of atomoxetine (ATX, a selective norepinephrine reuptake inhibitor) on the kinetics of Dalene and TAZA was tested. More specifically, Sprague-Dawley rats (308-468 g) received two 90 min PET scans each on two separate days (1-4 weeks apart) with an Inveon scanner. On first day each rat received a baseline scan, one with [^11C]Dalene and the other with [^11C]TAZA (96±8 MBq). The second day each animal was pre-injected i.v. with a 50 μl bolus of ATX (1-2 mg/Kg), 17 min before [^11C]Dalene and 2 min before [^11C]TAZA (33±7 MBq). The images were reconstructed dynamically in 25 frames (4×0.5 min, 8×1 min, 5×2 min, 2×5 min, 6×10 min). Each subject received a CT scan that was used for attenuation and scatter correction. Images were normalized to Paxinos & Watson space via co-registration with an MR rat template. Common regions of interest were drawn on the MR template and placed on brainstem, thalamus (Tha), and midbrain (Mid), brain regions with highest uptake as well as anterior cingulate cortex area 1 (Cg1), region with low NET density and which was chosen as a reference based on previous studies. Time activity curves (TACs) from all regions were analyzed in PMOD using Logan non-invasive method with Cg1's k2′ parameter estimated by fitting of brainstem data to MRTM.
# Slices were then washed and exposed on to phosphor screens and slides were analysed by Optiquant image analysis program for SP binding Digital light units/mm^2 (DLU/mm^2). Sprague-Dawley rats were scanned after IV injection of ^11C-TAZA and ^11C-Dalene in Inveon PET/CT and displacement studies were done with atomoxetine (1 mg/kg). PET images were analyzed using PMOD. […] Presence of SP in the AD brains were confirmed using 4G8 antibody immunostaining for Aβ-amyloid. […] Ratios of brain stem to cingulate gyms (used as reference region) was >2.
# [3] = tested on: NET in brown adipose tissue (BAT); assay: Rat PET/CT NET imaging in brown adipose tissue; assay type: in vivo, Sprague-Dawley rats; settings: atomoxetine preinjection 1-2 mg/kg
# Source text: (§1) In still further experiments, binding/uptake of contemplated compounds to/by NET was investigated in adipose tissue, and especially brown adipose tissue. It should be appreciated that due to the innervation of brown adipose tissue (BAT) with neurotransmitter, norepinephrine is essential for regulation of thermogenesis, and thus has a role in obesity and diabetes. Norepinephrine acts by activating β3-adrenoceptor to increase BAT metabolic activity measurable using ^18F-FDG PET. Norepinephrine transporter (NET) inhibitors such as atomoxetine play an important role in BAT activity by increasing norepinephrine levels.
# Male Sprague-Dawley rats were fasted for 24 hrs prior to ^18F-FDG administration. Rats were administered i.v. ˜0.3 mCi ^18F-FDG under 2% isoflurane anesthesia. The same rats were treated with atomoxetine 1 mg/kg, 30 mins before ^18F-FDG administration. Rats were awake for 60 mins and subsequently anesthetized for upper-body Inveon MicroPET/CT scan. To evaluate whether enhanced ^18F-FDG uptake in activated BAT could be reduced by pharmacologic interventions, propranolol ([…]) 5 mg/kg was given intraperitoneally in anesthetized rats, 30 minutes prior to atomoxetine administration. […] PET/CT data was analysed using IRW and PMOD.
# amyloid plaques = target: T2, amyloid plaques (Homo sapiens, UniProt P05067); assay: ^3H-PIB competition binding in human Alzheimers brain homogenate
# T2 construct: target the polymeric form of the β-amyloid peptide that is associated with senile plaques; from tissue; host or cells: human Alzheimer's disease brain homogenate (post mortem)
# [4] = cited from earlier work
# [5] = tested on: brown adipose tissue (BAT) metabolic activity; assay: ^18F-FDG PET/CT uptake in interscapular BAT of rats; assay type: in vivo, Sprague-Dawley rats
# Source text: as §1
# Male Sprague-Dawley rats were fasted for 24 hrs prior to ^18F-FDG administration. Rats were administered i.v. ˜0.3 mCi ^18F-FDG under 2% isoflurane anesthesia. The same rats were treated with atomoxetine 1 mg/kg, 30 mins before ^18F-FDG administration. Rats were awake for 60 mins and subsequently anesthetized for upper-body Inveon MicroPET/CT scan. To evaluate whether enhanced ^18F-FDG uptake in activated BAT could be reduced by pharmacologic interventions, propranolol ([…]) 5 mg/kg was given intraperitoneally in anesthetized rats, 30 minutes prior to atomoxetine administration. For NET imaging, ^11C-TAZA (4-^11C-methylamino-4′-dimethylaminoazobenzene) and ^11C-Dalene (4-methylamino-4′-(N—^11C-methyl-N-methylamino)stilbene) were administered iv (˜0.5-3 mCi) and scanned in Inveon PET/CT for 90 mins. Competition studies were done with atomoxetine (preinjection, 1-2 mg/kg). PET/CT data was analysed using IRW and PMOD.
# T1 sequence (P05067 672-713 limits assumed): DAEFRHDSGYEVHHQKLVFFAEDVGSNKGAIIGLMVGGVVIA
# T2 sequence (P05067 672-713 limits assumed): as above
structure (smiles),measurement,setting,value
"CN(C)c1ccc(N=Nc2ccc(N[11CH3])cc2)cc1 [^11C-TAZA, 4-^11C-methylamino-4′-dimethylamino-azobenzene]",Displacement of radiotracer by PIB,"[1]; 10 μM PIB, hippocampus slices",> 80%
same,Displacement of radiotracer by unlabeled PIB (in words),"[1]; 10 μM PIB, hippocampus slices",displaced
same,Binding to SP compared with the other radiotracers (in words),[1]; ^11C-TAZA vs ^11C-Dalene and ^11C-PIB,higher specific binding component; also recorded: highest binding
same,Binding to SP present in AD brains compared to the normal controls (in words),[1]; hippocampus slices,bound specifically
same,change in BPND in ATX condition (brainstem),[2]; ATX 1-2 mg/Kg i.v. pre-injection,11%
same,Effect of atomoxetine on binding in NET brain regions (in words),[2]; atomoxetine 1 mg/kg,reduced the binding
same,time at which ratio target/reference reached a constant level,"[2]; baseline condition, post tracer injection",20 min
same,baseline BPND (brainstem),"[2]; baseline scan, Logan non-invasive method, Cg1 reference",0.7
same,peak uptake in ATX condition relative to control,"[2]; brainstem, ATX 1-2 mg/Kg i.v. pre-injection",5 fold
same,baseline BPND (Mid),"[2]; midbrain, baseline scan, Cg1 reference",0.50
same,change in BPND in ATX condition (Mid),"[2]; midbrain, ATX 1-2 mg/Kg i.v. pre-injection",18%
same,baseline BPND (Tha),"[2]; thalamus, baseline scan, Cg1 reference",0.41
same,change in BPND in ATX condition (Tha),"[2]; thalamus, ATX 1-2 mg/Kg i.v. pre-injection",6%
same,reduction of IBAT binding by atomoxetine,[3],60%
CNc1ccc(N=Nc2ccc(N(C)C)cc2)cc1 [TAZA],IC50,"amyloid plaques; human Alzheimers brain homogenate tissue in 10% alcohol in PBS buffer, ^3H-PIB, read-out: binding affinity (IC50)",12.8 nM
same,times better in binding to amyloid plaques compared to PIB,"amyloid plaques; human brain tissue, from IC50 values",~10 times
"CC(=C(C#N)C#N)c1ccc2cc(N(C)CC[18F])ccc2c1 [^18F-FDDNP, 2-(1-{6-[(2-[^18F]fluoroethyl)(methyl)amino]-2-naphtyl}ethylidene)malonitrile]",log P,[4],> 3
"CN(C)c1ccc(C=Cc2ccc(N[11CH3])cc2)cc1 [^11C-Dalene, 4-^11C-methylamino-4′-(N,N-dimethylamino)stilbene]",Displacement of radiotracer by unlabeled PIB (in words),"[1]; 10 μM PIB, hippocampus slices",not complete; also recorded: displaced
same,Binding to SP present in AD brains compared to the normal controls (in words),[1]; hippocampus slices,bound specifically
same,Effect of atomoxetine on binding in NET brain regions (in words),"[2]; rat, in vivo",reduced the binding
same,baseline BPND (Mid),"[2]; rat, in vivo",0.91
same,baseline BPND (Tha),"[2]; rat, in vivo",0.86
same,baseline BPND (brainstem),"[2]; rat, in vivo",1.42
same,change in BPND in ATX condition (Mid),"[2]; rat, in vivo",5.4%
same,change in BPND in ATX condition (Tha),"[2]; rat, in vivo",−12%
same,change in BPND in ATX condition (brainstem),"[2]; rat, in vivo",−18%
same,peak uptake in ATX condition relative to control,"[2]; rat, in vivo",14 fold
same,time at which ratio target/reference reached a constant level,"[2]; rat, in vivo",20 min
same,reduction of IBAT binding by atomoxetine,[3],35%
"CC(C)NCC(O)COc1cccc2ccccc12 (centres unmarked) [Propranolol, propranolol]",effect on average ^18F-FDG uptake of IBAT (in words),"[5]; propranolol 5 mg/kg intraperitoneally, 30 minutes prior to atomoxetine",reduced
"CNCC[C@@H](Oc1ccccc1C)c1ccccc1 [Atomoxetine, atomoxetine]",increase of average ^18F-FDG uptake of IBAT compared to controls,"[5]; atomoxetine 1 mg/kg, 30 mins before ^18F-FDG",> 15 times
same,average ^18F-FDG uptake of IBAT,"[5]; atomoxetine 1 mg/kg, 30 mins before ^18F-FDG, controls 23.9±8.7",365±170 kBq/cc
